Results as given in patent publication US7825068B2, “Heterocyclylethylcarboxamide derivatives” (Bayer Cropscience AG, priority 2005, dated 2010).

Tests used:
[1] = test system: Alternaria brassicae; assay: In vivo test on Alternaria brassicae (preventive spray on radish plants); details: for efficacy against Alternaria brassicae: 330 ppm, comparison compounds of WO 2004/074280
Method: The active ingredient tested is prepared by potter homogenisation in a concentrated suspension type formulation at 100 g/l. […] Radish plants (Pernot variety) in starter cups, sown on a 50/50 peat soil-pozzolana substrate and grown at 18-20° C., are treated at the cotyledon stage by spraying with the aqueous suspension described above. Plants, used as controls, are treated with an aqueous solution not containing the active material. After 24 hours, the plants are contaminated by spraying them with an aqueous suspension of Alternaria brassicae spores (40,000 spores per cm^3). The spores are collected from a 12-13-day-old culture. The contaminated radish plants are incubated for 6-7 days at about 18° C., under a humid atmosphere. Grading is carried out 6 to 7 days after the contamination, in comparison with the control plants.

[2] = test system: Pyrenophora teres; assay: In vivo test on Pyrenophora teres (preventive spray on barley plants); details: 330 ppm; comparison compounds of WO 2004/074280
Method: The active ingredient tested is prepared by potter homogenisation in a concentrated suspension type formulation at 100 g/l. […] Barley plants (Express variety) in starter cups, sown on a 50/50 peat soil-pozzolana substrate and grown at 12° C., are treated at the 1-leaf stage (10 cm tall) by spraying with the aqueous suspension described above. Plants, used as controls, are treated with an aqueous solution not containing the active material. After 24 hours, the plants are contaminated by spraying them with an aqueous suspension of Pyrenophora teres spores (12,000 spores per ml). The spores are collected from a 12-day-old culture. The contaminated barley plants are incubated for 24 hours at about 20° C. and at 100% relative humidity, and then for 12 days at 80% relative humidity. Grading is carried out 12 days after the contamination, in comparison with the control plants.

SMILES	efficacy against Alternaria brassicae [1]	efficacy against Pyrenophora teres [2]	protection (good (at least 50%) to total) ([1]; dose of 110 ppm, radish plants (Pernot variety), grading 6 to 7 days after contamination, in comparison with control plants)
Cc1cc(C(=O)NCCc2nc(F)c(F)cc2F)c(C)o1 [Compound B17, 2,5-dimethyl-N-[2-(3,5,6-trifluoropyridin-2-yl)ethyl]-3-furamide]	no efficacy	no efficacy	
CSc1sc(C(=O)NCCc2ncc(C(F)(F)F)cc2Cl)c(I)c1S(=O)(=O)C(C)C [Compound C10, N-{2-[3-chloro-5-(trifluoromethyl)pyridin-2-yl]ethyl}-3-iodo-4-(isopropylsulfonyl)-5-(methylthio)thiophene-2-carboxamide]	no efficacy	no efficacy	
Cn1cccc1C(=O)NCCc1ncc(C(F)(F)F)cc1Cl [Compound F1, N-{2-[3-chloro-5-(trifluoromethyl)pyridin-2-yl]ethyl}-1-methyl-1H-pyrrole-2-carboxamide]	no efficacy	no efficacy	
Cc1nc(-c2ccccc2)sc1C(=O)NCCc1ncc(C(F)(F)F)cc1Cl [Compound H3, N-{2-[3-chloro-5-(trifluoromethyl)pyridin-2-yl]ethyl}-4-methyl-2-phenyl-1,3-thiazole-5-carboxamide]	no efficacy	no efficacy	
Cc1c(C(=O)NCCc2ncc(C(F)(F)F)cc2Cl)cnn1-c1ccccc1 [Compound J9, N-{2-[3-chloro-5-(trifluoromethyl)pyridin-2-yl]ethyl}-5-methyl-1-phenyl-1H-pyrazole-4-carboxamide]	no efficacy	no efficacy	
Cc1cc(C(=O)NCCc2cn(C)nc2C(F)(F)F)c(C(F)(F)F)o1 [Compound J-3]			at least 50%
Cc1onc(-c2ccccc2)c1C(=O)NCCc1ncc(C(F)(F)F)cc1Cl [Compound M3, N-{2-[3-chloro-5-(trifluoromethyl)pyridin-2-yl]ethyl}-5-methyl-3-phenylisoxazole-4-carboxamide]	no efficacy	no efficacy	
O=C(NCCc1ccc(Cl)cn1)c1cccnc1Cl [Compound R32, 2-chloro-N-[2-(5-chloropyridin-2-yl)ethyl]nicotinamide]	no efficacy	no efficacy	
O=C(NCCc1ncc(C(F)(F)F)cc1Cl)C1CCN(C(=O)OCc2ccccc2)CC1 [Compound T1, benzyl 4-[({2-[3-chloro-5-(trifluoromethyl)pyridin-2-yl]ethyl}amino)carbonyl]piperidine-1-carboxylate]	no efficacy	no efficacy	
CC1=C(C(=O)NCCc2ncc(Cl)cc2F)SCCO1 [Compound V9, N-[2-(5-chloro-3-fluoropyridin-2-yl)ethyl]-2-methyl-5,6-dihydro-1,4-oxathiine-3-carboxamide]	no efficacy	no efficacy	
CC1=C(C(=O)NCCc2nc(Cl)ccc2Cl)SCCO1 [Compound V10, N-[2-(3,6-dichloropyridin-2-yl)ethyl]-2-methyl-5,6-dihydro-1,4-oxathiine-3-carboxamide]	no efficacy	no efficacy	
